Test results taken from PMC4352194, “Physicochemical and Biological Properties of Oxovanadium(IV), Cobalt(II) and Nickel(II) Complexes with Oxydiacetate Anions” (Biological Trace Element Research, 2014).

Assays:
[1] = Conductometric titration: limiting molar conductance and association constants; assay type: physicochemical; conditions: 298.15 K
Procedure: Conductometric measurements were accomplished on the Cerko Lab System microtitration unit fitted with a 5-mL Hamilton’s syringe, a CD-201 conductometric cell with the constant k = 0.096 cm^−1 (HYDROMET) and a self-made measuring cell equipped with a magnetic stirrer. The conductometric electrode was standardized with conductivity standards (aqueous KCl solutions) of conductivity 84 and 200 μS/cm, purchased from Hamilton Company. The measurements were carried out at 298.15 ± 0.10 K controlled by the Lauda E100 circulation thermostat. The titrant (5 mM [Co(ODA)(H2O)] or [Ni(ODA)(H2O)3]) was added to the titrand (0–50 % v/v DMSO-H2O) both at the same mole fraction of organic solvent, in increments of 0.01 mL, with a pause of 60 s. Each titration was repeated at least three times in order to check the reproducibility of the data. The limiting molar conductance values (Λo) and the association constants (logK ass) for the nickel(II) and cobalt(II) complexes were computed using the Shedlovsky’s and Pitt’s method. The physicochemical parameters of the binary solvents used in the calculations were taken from the literature. They are collected in Table 1.
The limiting molar conductance values (Λo) and the association constants (logK ass) for the nickel(II) and cobalt(II) complexes were computed using Shedlovsky’s and Pitt’s equations and are consequently collected in Table 4.

[2] = test system: Staphylococcus aureus; experiment: Disc diffusion test; assay type: cell-based; conditions: S. aureus
Procedure: (§1) The antimicrobial activity of complex compounds was assessed against Bacillus subtilis, Escherichia coli, Enterococcus faecalis, Pseudomonas aeruginosa, Staphylococcus aureus, Staphylococcus epidermidis (all strains were from the collection of the Department of Molecular Biology, University of Gdańsk). All bacteria were cultured in the Luria-Bertani (LB) broth at 310.15 K in the air with shaking. LB agar plates were prepared by the supplementation of LB broth with the 1.5 % bacteriological agar. Stock solutions of complex compounds were freshly prepared in the LB broth at the concentration of 25 mg/mL. Aliquots of 0.05 mL of bacterial culture at the optical density at 600 nm of 0.1 (inoculum 5 × 10^6 cells per plate) were spread on LB agar plates. Sterile filter paper discs (of 6 mm diameter) were impregnated with solutions of complex compounds prepared in the deionized water at the following amounts: 0.1, 0.2, 0.5 and 1.0 mg per disc and placed on agar plates. After an overnight incubation at 310.15 K, zones of bacterial growth inhibition were measured. Neomycin at the amount of 0.1 mg/disc was used as a control.

[3] = test system: Enterococcus faecalis; experiment: Disc diffusion test; assay type: cell-based; conditions: E. faecalis
Procedure: as §1

[4] = test system: Escherichia coli; experiment: Disc diffusion test; assay type: cell-based; conditions: E. coli
Procedure: as §1

[5] = test system: Pseudomonas aeruginosa; experiment: Disc diffusion test; assay type: cell-based; conditions: P. aeruginosa
Procedure: as §1

[6] = test system: Staphylococcus epidermidis; experiment: Disc diffusion test; assay type: cell-based; conditions: S. epidermidis
Procedure: as §1

[7] = Pitts method, DMSO-water 0 % v/v
[8] = Pitts method, DMSO-water 10 % v/v
[9] = Pitts method, DMSO-water 20 % v/v
[10] = Pitts method, DMSO-water 30 % v/v
[11] = Pitts method, DMSO-water 40 % v/v
[12] = Pitts method, DMSO-water 50 % v/v
[13] = Shedlovsky method, DMSO-water 0 % v/v
[14] = Shedlovsky method, DMSO-water 10 % v/v
[15] = Shedlovsky method, DMSO-water 20 % v/v
[16] = Shedlovsky method, DMSO-water 30 % v/v
[17] = Shedlovsky method, DMSO-water 40 % v/v
[18] = Shedlovsky method, DMSO-water 50 % v/v

Compound | association constant logK ass [1, 7] | limiting molar conductance Λo [1, 7] | association constant logK ass [1, 8] | limiting molar conductance Λo [1, 8] | association constant logK ass [1, 9] | limiting molar conductance Λo [1, 9] | association constant logK ass [1, 10] | limiting molar conductance Λo [1, 10] | association constant logK ass [1, 11] | limiting molar conductance Λo [1, 11] | association constant logK ass [1, 12] | limiting molar conductance Λo [1, 12] | association constant logK ass [1, 13] | limiting molar conductance Λo [1, 13] | association constant logK ass [1, 14] | limiting molar conductance Λo [1, 14] | association constant logK ass [1, 15] | limiting molar conductance Λo [1, 15] | association constant logK ass [1, 16] | limiting molar conductance Λo [1, 16] | also measured
O.O.O.O.O.O.O.O.O.O=C([O-])COCC(=O)[O-].O=C([O-])COCC(=O)[O-].[Ni+2].[Ni+2] [Ni(ODA), [Ni(ODA)(H2O)3]·1.5H2O] | 3.34 (±0.01) | 216.74(±1.08) S cm^2 mol^−1 | 3.48 (±0.01) | 161.75(±0.93) S cm^2 mol^−1 | 3.56 (±0.01) | 114.72(±1.55) S cm^2 mol^−1 | 3.75 (±0.01) | 91.35(±1.33) S cm^2 mol^−1 | 4.05 (±0.01) | 52.00(±0.50) S cm^2 mol^−1 | 4.17 (±0.04) | 29.49(±0.92) S cm^2 mol^−1 | 3.33 (±0.01) | 216.10(±0.74) S cm^2 mol^−1 | 3.47 (±0.01) | 161.00(±0.95) S cm^2 mol^−1 | 3.59 (±0.01) | 119.83(±0.83) S cm^2 mol^−1 | 3.74 (±0.01) | 90.63(±1.37) S cm^2 mol^−1 | association constant logK ass [1, 17]: 4.05 (±0.02); limiting molar conductance Λo [1, 17]: 51.85(±0.61) S cm^2 mol^−1; association constant logK ass [1, 18]: 4.15 (±0.03); limiting molar conductance Λo [1, 18]: 28.80(±0.48) S cm^2 mol^−1; Zone of growth inhibition ([2]; 500 μg/disc): 7 mm; Zone of growth inhibition ([2]; 1000 μg/disc): 8 mm
O.O.O.O=C(O)COCC(=O)O.[Co] [Co(ODA), [Co(ODA)(H2O)2]·H2O] | 3.38 (±0.01) | 226.58(±1.32) S cm^2 mol^−1 | 3.51 (±0.01) | 173.97(±0.60) S cm^2 mol^−1 | 3.77 (±0.01) | 134.29(±1.09) S cm^2 mol^−1 | 3.89 (±0.01) | 92.53(±0.96) S cm^2 mol^−1 | 4.05 (±0.01) | 57.02(±0.71) S cm^2 mol^−1 | 4.32 (±0.03) | 29.74(±1.46) S cm^2 mol^−1 | 3.35 (±0.01) | 223.49(±1.45) S cm^2 mol^−1 | 3.49 (±0.01) | 171.55(±0.74) S cm^2 mol^−1 | 3.77 (±0.01) | 133.47(±1.00) S cm^2 mol^−1 | 3.89 (±0.01) | 92.16(±1.07) S cm^2 mol^−1 | association constant logK ass [1, 17]: 4.09 (±0.03); limiting molar conductance Λo [1, 17]: 55.24(±0.84) S cm^2 mol^−1; association constant logK ass [1, 18]: 4.22 (±0.02); limiting molar conductance Λo [1, 18]: 28.52(±1.58) S cm^2 mol^−1; Zone of growth inhibition ([3]; 500 μg/disc): 10 mm; Zone of growth inhibition ([3]; 1000 μg/disc): 15 mm; Zone of growth inhibition ([4]; 500 μg/disc): 12 mm; Zone of growth inhibition ([4]; 1000 μg/disc): 14 mm; Zone of growth inhibition ([5]; 500 μg/disc): 14 mm; Zone of growth inhibition ([5]; 1000 μg/disc): 18 mm; Zone of growth inhibition ([2]; 100 μg/disc): 7 mm; Zone of growth inhibition ([2]; 500 μg/disc): 12 mm; Zone of growth inhibition ([2]; 1000 μg/disc): 17 mm; Zone of growth inhibition ([6]; 100 μg/disc): 8 mm; Zone of growth inhibition ([6]; 500 μg/disc): 19 mm; Zone of growth inhibition ([6]; 1000 μg/disc): 23 mm
O.O.O=C([O-])COCC(=O)[O-].[O]=[V+2] [VO(ODA), [VO(ODA)(H2O)2]] | – | – | – | – | – | – | – | – | – | – | – | – | – | – | – | – | – | – | – | – | Zone of growth inhibition ([3]; 500 μg/disc): 9 mm; Zone of growth inhibition ([3]; 1000 μg/disc): 13 mm; Zone of growth inhibition ([6]; 1000 μg/disc): 12 mm
